Assay results published in US6800467B1, “Polypeptides having aminopeptidase activity and nucleic acids encoding same” (Novozymes Biotech, Inc., priority 1997, dated 2004).

Target: T1, aminopeptidase II (Aspergillus oryzae, UniProt Q2ULM2)
T1 construct: the first 15 amino acids likely comprise a secretory signal peptide; made in house; host or cells: Aspergillus oryzae JaL142-6 (alkaline protease-deficient), plasmid pEJG19; purified from shake flask supernatant on Q-Sepharose
Assay: Inhibition of the aminopeptidase II with 1,10-phenanthroline, Leu-pNA as substrate
Format: biochemical
Conditions: pH 7.5
Protocol: Inhibition of the aminopeptidase II with 1,10-phenanthroline was evaluated using Leu-pNA as substrate at pH 7.5 in 50 mM Tris pH 7.5 buffer where hydrolysis was monitored at 405 nm. A 200 mM solution of 1,10-phenanthroline in methanol was prepared. The inhibition reaction was conducted by mixing 100 μl of 2 mg of Leu-pNA per ml of 50 mM sodium phosphate pH 7.5 solution and 10 μl of the 1,10-phenanthroline solution with 100 μl of aminopeptidase II diluted 5-fold in 50 mM sodium phosphate pH 7.5 buffer. A control was run where 10 μl of 20 mM Tris pH 7.6 buffer was used in place of the 1,10-phenantholine solution.

T1 sequence (Q2ULM2 17-496): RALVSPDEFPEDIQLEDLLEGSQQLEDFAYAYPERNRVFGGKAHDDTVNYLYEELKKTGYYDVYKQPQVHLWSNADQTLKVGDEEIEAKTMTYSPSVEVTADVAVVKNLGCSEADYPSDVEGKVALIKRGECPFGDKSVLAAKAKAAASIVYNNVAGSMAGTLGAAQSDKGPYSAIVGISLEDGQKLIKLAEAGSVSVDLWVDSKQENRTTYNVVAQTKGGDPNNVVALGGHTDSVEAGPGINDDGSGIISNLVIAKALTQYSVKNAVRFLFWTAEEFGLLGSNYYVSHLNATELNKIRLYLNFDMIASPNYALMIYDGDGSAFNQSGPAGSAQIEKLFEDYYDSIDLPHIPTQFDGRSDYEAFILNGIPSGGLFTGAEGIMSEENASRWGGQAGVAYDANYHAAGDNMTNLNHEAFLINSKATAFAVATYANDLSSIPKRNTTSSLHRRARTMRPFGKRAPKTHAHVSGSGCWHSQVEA

c1cnc2c(c1)ccc1cccnc12 [1,10-phenanthroline]
Inhibition of the aminopeptidase II (Leu-pNA as substrate, 10 μl of 200 mM 1,10-phenanthroline in methanol): inhibited
rate of hydrolysis of Leu-pNA in the presence of 1,10-phenanthroline (control without inhibitor 285 mOD/minute): 21 mOD/minute
